Assay results: patent US20040138064A1, “Adjuvant for water soluble herbicides” (priority 2002, published 2004)

Legend:
soybeans = test: Greenhouse spray of glyphosate (0.75 lb AI per 10 gallons per acre) with or without sulfate adjuvant on soybean; assay type: in vivo, Glycine max; conditions: for height reduction of soybean, statistical comparison with the no adjuvant case / weight reduction of soybean, statistical comparison with the no adjuvant case: 0 ppm water hardness and 342 ppm water hardness; for Plant Height Soybean % Control 15 DAT / Plant Weight Soybean % Control 15 DAT: no sulfate adjuvant
Description: (§1) The formulations shown in Table 3 and Table 4 are either glyphosate and ammonium sulfate (AMS) or glyphosate and isopropylammonium sulfate (MIPAS). In Table 3 and Table 4, 0 ppm hardness refers to the absence of minerals such as calcium ions and 342 ppm hardness refers to the amount of calcium ions present. The moles of sulfate indicate the amount of isopropylammonium sulfate or ammonium sulfate per liter. The aqueous solution was applied to the plots at a level of 10 gallons per acre. The two tested plants were soybeans (Glycine max) and grain sorghum (Milo), (Sorghum bicolar).
(§2) The herbicidal solutions were applied in a greenhouse using a Spray chamber with an FF nozzle having a nozzle size 8001EVS. The spray apparatus was operated at 38 psi and the height of the nozzle was 9.75 inches. The watering frequency was every 6 hours for 5 minutes. The daytime temperature was 85° F. and the nighttime temperature was 70° F. with a 16 hour day. The soybean was 4-4.5 inches with one trifoliate leaf present when the herbicidal solution was applied. The grain sorghum was 4-8 inches with 3-4 leaves present when the herbicidal solution was applied.
(§3) The Figures show values of moles of ammonium sulfate or isopropylammonium sulfate per liter. The actual solution used on the grain sorghum contained 0.13 pounds of glyphosate active ingredient per 10 gallons of water per acre. The actual solution used on the soybean contained 0.75 pounds glyphosate active ingredient per 10 gallons of water per acre.
(§4) FIGS. 5 and 9 show the height of sorghum and soybean, respectively, when distilled water was used, as a percent reduction of the height of the control after 15 days. FIGS. 6 and 10 show the height of sorghum and soybean, respectively, when hard water was used, as a percent reduction of the height of the control after 15 days. FIGS. 7 and 11 show the fresh weight of sorghum and soybean, respectively, when distilled water was used, as a percent reduction of the weight of the control after 15 days. FIGS. 8 and 12 show the fresh weight of sorghum and soybean, respectively, when hard water was used, as a percent reduction of the weight of the control after 15 days. The plants were harvested and weighed to determine the fresh weight.

Morningglory Entireleaf = test: Cabinet spray of glyphosate (about 0.63 lb AI per 10 gallons per acre) with or without sulfate adjuvant on morningglory; assay type: in vivo, abutilon theophrasti medik; conditions: for Morning Glory % Control 7 DAT / Morning Glory % Control 14 DAT / Morning Glory % Control 21 DAT / Morning Glory Fresh Weight 21 DAT: no sulfate adjuvant
Description: as §1, with “1” for “3”, “2” for “4”, “2,” for “4,”, “1000” for “342”, “Morningglory Entireleaf ([…])” for “soybeans (Glycine max)”, “Velvetleaf ([…]). The term YBI in the Figures indicates the adjuvant was isopropylammonium sulfate.” for “grain sorghum (Milo), (Sorghum bicolar).”
(§5) The herbicidal solutions were applied in a cabinet using a Lodrift nozzle having a nozzle size 110015. The spray apparatus was operated at 40 psi using air as the propellant and water as a carrier. The boom height was 13.5 inches. The ground speed was 2.6 miles per hour. The morningglory was at the three-leaf stage when the herbicidal solution was applied. The velvetleaf was 4-6 inches in height when the herbicidal solution was applied. The normalized spray volume was 10 gallons per acre.
(§6) The Figures show values of pounds of ammonium sulfate or isopropylammonium sulfate per hundred gallons. The actual solutions used were nominally ten gallons of the sulfate in water, e.g. one-tenth of the sulfate per hundred gallons of carrier, with twenty fluid ounces of glyphosate. Twenty fluid ounces of glyphosate contains about 0.63 pounds of glyphosate active ingredient (AI) reported as the isopropylammonium. The glyphosate active ingredient (AI) as the isopropylammonium salt is related to the glyphosate acid equivalents (AE) by the formula: (0.7142)(AI)=AE.
(§7) FIGS. 1 and 3 show the fresh weight of morningglory and velvetleaf, respectively. The fresh weight was determined by cutting the stem of the plant flush with the ground and weighing the plant. The weight is reported as grams per pot since a single plant was grown in each pot. FIGS. 2 and 4 show the percent control at 7, 14 and 21 days for morningglory and velvetleaf, respectively.

Velvetleaf = test: Cabinet spray of glyphosate (about 0.63 lb AI per 10 gallons per acre) with or without sulfate adjuvant on velvetleaf; assay type: in vivo, ipomoea hederacea (L.) jacq. Var. integriuscula gray; conditions: for Velvet Leaf % Control 7 DAT / Velvet Leaf % Control 14 DAT / Velvet Leaf % Control 21 DAT / Velvet Leaf Fresh Weight 21 DAT: no sulfate adjuvant
Description: as §1, with “1” for “3”, “2” for “4”, “2,” for “4,”, “1000” for “342”, “Morningglory Entireleaf ([…])” for “soybeans (Glycine max)”, “Velvetleaf ([…]). The term YBI in the Figures indicates the adjuvant was isopropylammonium sulfate.” for “grain sorghum (Milo), (Sorghum bicolar).”
as §5, §6, §7
(§8) Bartlett's test (commonly used in the agricultural business) was used to statistically analyze the results.

grain sorghum (Milo) = test: Greenhouse spray of glyphosate (0.13 lb AI per 10 gallons per acre) with or without sulfate adjuvant on grain sorghum; assay type: in vivo, Sorghum bicolar; conditions: for Plant Height Sorghum % Control 15 DAT / Plant Weight Sorghum % Control 15 DAT: no sulfate adjuvant
Description: as §1, §2, §3, §4, §8

[1] = water hardness 0 ppm, AMS at the two highest concentrations, all MIPAS concentrations
[2] = water hardness 1000 ppm, higher concentrations of AMS, all MIPAS
[3] = water hardness 1000 ppm, two higher concentrations of AMS, all the MIPAS treatments
[4] = 342 ppm of water hardness, three highest concentrations of MIPAS, two higher concentrations of AMS

N.N.O=S(=O)(O)O [AMS, ammonium sulfate]
height reduction of soybean, statistical comparison with the no adjuvant case (soybeans): not significantly different from the no adjuvant case | weight reduction of soybean, statistical comparison with the no adjuvant case (soybeans): not significantly different from the no adjuvant case | height reduction of morningglory, statistical comparison with the no adjuvant case (Bartlett's test) (Morningglory Entireleaf; [1]): statistically different from the no adjuvant case | fresh weight of morningglory, statistical comparison with the no adjuvant case (Bartlett's test) (Morningglory Entireleaf; [2]): statistical difference | height reduction of morningglory, statistical comparison with the no adjuvant case (Bartlett's test) (Morningglory Entireleaf; [3]): statistically different from the no adjuvant case | fresh weight of velvetleaf, statistical comparison with no adjuvant (Bartlett's test) (Velvetleaf; water hardness 0 ppm): no statistical difference | fresh weight of velvetleaf, statistical comparison with no adjuvant (Bartlett's test) (Velvetleaf; water hardness 1000 ppm, MIPAS at the two higher concentrations): no statistical difference | fresh weight of sorghum, statistical comparison with the no adjuvant case (Bartlett's test) (grain sorghum (Milo); 0 ppm water hardness): not significantly different from the no adjuvant case | height reduction of sorghum, statistical comparison with the no adjuvant case (Bartlett's test) (grain sorghum (Milo); 0 ppm water hardness): not significantly different from the no adjuvant case | fresh weight of sorghum, statistical comparison with the no adjuvant case (Bartlett's test) (grain sorghum (Milo); [4]): significantly different than the no adjuvant case

O=C(O)CNCP(=O)(O)O [Glyphosate, N-phosphonomethylglycine]
Plant Height Soybean % Control 15 DAT (soybeans; water hardness 0 ppm): 47.55% | Plant Weight Soybean % Control 15 DAT (soybeans; water hardness 0 ppm): 75.60% | Plant Height Soybean % Control 15 DAT (soybeans; water hardness 342 ppm): 47.77% | Plant Weight Soybean % Control 15 DAT (soybeans; water hardness 342 ppm): 59.20% | Morning Glory % Control 7 DAT (Morningglory Entireleaf; water hardness 0 ppm): 56% | Morning Glory % Control 14 DAT (Morningglory Entireleaf; water hardness 0 ppm): 56% | Morning Glory % Control 21 DAT (Morningglory Entireleaf; water hardness 0 ppm): 50% | Morning Glory Fresh Weight 21 DAT (Morningglory Entireleaf; water hardness 0 ppm): 1.4 grams per pot | Morning Glory % Control 7 DAT (Morningglory Entireleaf; water hardness 1000 ppm): 51% | Morning Glory % Control 14 DAT (Morningglory Entireleaf; water hardness 1000 ppm): 48% | Morning Glory % Control 21 DAT (Morningglory Entireleaf; water hardness 1000 ppm): 46% | Morning Glory Fresh Weight 21 DAT (Morningglory Entireleaf; water hardness 1000 ppm): 1.9 grams per pot | Velvet Leaf % Control 7 DAT (Velvetleaf; water hardness 0 ppm): 52% | Velvet Leaf % Control 14 DAT (Velvetleaf; water hardness 0 ppm): 84% | Velvet Leaf % Control 21 DAT (Velvetleaf; water hardness 0 ppm): 88% | Velvet Leaf Fresh Weight 21 DAT (Velvetleaf; water hardness 0 ppm): 1.1 grams per pot | Velvet Leaf % Control 7 DAT (Velvetleaf; water hardness 1000 ppm): 48% | Velvet Leaf % Control 14 DAT (Velvetleaf; water hardness 1000 ppm): 56% | Velvet Leaf % Control 21 DAT (Velvetleaf; water hardness 1000 ppm): 52% | Velvet Leaf Fresh Weight 21 DAT (Velvetleaf; water hardness 1000 ppm): 1.8 grams per pot | Plant Height Sorghum % Control 15 DAT (grain sorghum (Milo); water hardness 0 ppm): 41.04% | Plant Weight Sorghum % Control 15 DAT (grain sorghum (Milo); water hardness 0 ppm): 59.86% | Plant Height Sorghum % Control 15 DAT (grain sorghum (Milo); water hardness 342 ppm): 14.55% | Plant Weight Sorghum % Control 15 DAT (grain sorghum (Milo); water hardness 342 ppm): 40.97%

CC(C)N.CC(C)N.O=S(=O)(O)O [MIPAS, isopropylammonium sulfate]
height reduction of soybean, statistical comparison with the no adjuvant case (soybeans): not significantly different from the no adjuvant case | weight reduction of soybean, statistical comparison with the no adjuvant case (soybeans): not significantly different from the no adjuvant case | fresh weight of morningglory, statistical comparison of MIPAS with AMS (Bartlett's test) (Morningglory Entireleaf; water hardness 0 ppm): no statistically significant difference | fresh weight of morningglory, statistical comparison with the no adjuvant case (Bartlett's test) (Morningglory Entireleaf; water hardness 0 ppm): statistical difference | height reduction of morningglory, statistical comparison of MIPAS with AMS (Bartlett's test) (Morningglory Entireleaf; water hardness 0 ppm): no statistically significant difference | height reduction of morningglory, statistical comparison with the no adjuvant case (Bartlett's test) (Morningglory Entireleaf; [1]): statistically different from the no adjuvant case | fresh weight of morningglory, statistical comparison of MIPAS with AMS (Bartlett's test) (Morningglory Entireleaf; water hardness 1000 ppm): no statistically significant difference | height reduction of morningglory, statistical comparison of MIPAS with AMS (Bartlett's test) (Morningglory Entireleaf; water hardness 1000 ppm): not statistically significant | fresh weight of morningglory, statistical comparison with the no adjuvant case (Bartlett's test) (Morningglory Entireleaf; [2]): statistically different from the no adjuvant case | height reduction of morningglory, statistical comparison with the no adjuvant case (Bartlett's test) (Morningglory Entireleaf; [3]): statistically different from the no adjuvant case | fresh weight of velvetleaf, statistical comparison with no adjuvant (Bartlett's test) (Velvetleaf; water hardness 0 ppm): no statistical difference | height reduction of velvetleaf, statistical comparison with the no adjuvant case (Bartlett's test) (Velvetleaf; water hardness 0 ppm and 1000 ppm): statistically different from the no adjuvant case | height reduction of velvetleaf, statistical comparison of MIPAS with AMS (Bartlett's test) (Velvetleaf; water hardness 0 ppm, high MIPAS concentrations): statistically different from the AMS results | fresh weight of velvetleaf, statistical comparison of MIPAS with AMS (Bartlett's test) (Velvetleaf; water hardness 1000 ppm): no statistically significant difference | height reduction of velvetleaf, statistical comparison of MIPAS with AMS (Bartlett's test) (Velvetleaf; water hardness 1000 ppm): not statistically significant | fresh weight of sorghum, statistical comparison with the no adjuvant case (Bartlett's test) (grain sorghum (Milo); 0 ppm water hardness): not significantly different from the no adjuvant case | height reduction of sorghum, statistical comparison with the no adjuvant case (Bartlett's test) (grain sorghum (Milo); 0 ppm water hardness): not significantly different from the no adjuvant case | fresh weight of sorghum, statistical comparison of MIPAS with AMS (Bartlett's test) (grain sorghum (Milo); 342 ppm of water hardness): not significantly different from each other | height reduction of sorghum, statistical comparison of MIPAS with AMS (Bartlett's test) (grain sorghum (Milo); 342 ppm of water hardness): not significantly different than the AMS results | height reduction of sorghum, statistical comparison with the no adjuvant case (Bartlett's test) (grain sorghum (Milo); 342 ppm of water hardness): significantly different than the no adjuvant case | fresh weight of sorghum, statistical comparison with the no adjuvant case (Bartlett's test) (grain sorghum (Milo); [4]): significantly different than the no adjuvant case
